From ChEMBL document CHEMBL1201862, “PubChem BioAssay data set” (2004) come the findings set out here.

Molecules are shown by their SMILES.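 Interpolation was linear, between the two tested concentrations surrounding the appropriate level; five concentrations were tested over 48 hours in 96-well plates. Here, GI50 denotes the concentration required for 50% inhibition of growth.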 Activity calls are given as the source filed them. Rule as the data show it: active = GI50 up to about 1.1 µM and inactive = higher.

Holding throughout (assay): NCI tumour cell line growth inhibition, 48 h
The subject of experiment [1] is 786-0.
For experiment [2], the system named is ACHN.
Experiment [3] concerns DLD-1.
For experiment [4], the system named is HCT-15.
Experiment [5] relates to HOP-62.
Experiment [6] deals with HOP-92.
The test system of experiment [7] is HT-29.
Experiment [8] concerns IGROV-1.
Experiment [9] has as its system NCI-H23.
Experiment [10] concerns OVCAR-4.
Experiment [11] concerns OVCAR-8.
For experiment [12], the system named is SK-MEL-5.
Experiment [13] has as its system SNB-19.
For experiment [14], the system named is TK-10.
Experiment [15] deals with UO-31.
The test system of experiment [16] is NCI-H226.
For experiment [17], the system named is SK-OV-3.

For the compound `O=C1[C@@H]2C(c3ccccc3[N+](=O)[O-])=NO[C@@H]2C(=O)N1c1ccc(Cc2ccc(N3C(=O)[C@H]4C(c5ccccc5[N+](=O)[O-])=NO[C@H]4C3=O)cc2)cc1`, the GI50 in experiment [1] was > 100 µM (inactive); in [2], > 100 µM (inactive); in [3], > 100 µM (inactive); in experiment [4] it was above 100 µM; in experiment [5], > 100 µM (inactive); in experiment [6] it was > 100 µM (inactive). Also, the GI50 in [7], in experiment [8], in experiment [9], in experiment [10], in [11] and in experiment [12] was > 100 µM (inactive) throughout. The GI50 in [13], in experiment [14] and in experiment [15] was > 100 µM (inactive) throughout.
As for `CCOc1ccc(/N=C(/NC(=O)c2ccccc2)SC)cc1`, the GI50 is > 100 µM (inactive) in experiment [1]; > 100 µM (inactive) in experiment [2]; > 100 µM (inactive) in experiment [3]; above 100 µM in experiment [4]; > 100 µM (inactive) in [5]; > 100 µM (inactive) in [6]. The GI50 in experiment [7], in experiment [8], in experiment [16], in experiment [9], in experiment [10] and in experiment [11] was > 100 µM (inactive) each time. Also, the GI50 in experiment [12], in experiment [17], in experiment [13], in experiment [14] and in experiment [15] was > 100 µM (inactive) each time.
`O=C1OC(c2cccc(C(F)(F)F)c2)c2ccc3ccccc3c21` (stereo not given): the GI50 in experiment [1] is > 10 µM (inactive); in experiment [2], > 10 µM (inactive); in experiment [3], 4.79 µM (inactive); in experiment [4], 8.22 µM; in experiment [5] it was > 10 µM (inactive); in experiment [6] it was 91.8 µM (inactive). Further, the GI50 in [7] was > 10 µM (inactive); in experiment [8], > 10 µM (inactive); in experiment [16] it was > 10 µM (inactive); in [9], 4.95 µM (inactive); in [10], > 10 µM (inactive); in experiment [11], > 10 µM (inactive). The GI50 in experiment [12] was 4.74 µM (inactive); in experiment [17], > 10 µM (inactive); in [13] it was > 10 µM (inactive); in experiment [14], > 10 µM (inactive); in experiment [15], 9.68 µM (inactive).
Regarding `NC(=S)N/C=C1\C(=O)Oc2ccccc2C1=O`, the GI50 in experiment [1] was 53.5 µM (inactive); in experiment [2], 28.9 µM (inactive); in experiment [3], 31.2 µM (inactive); in experiment [4], 48 µM; in experiment [6], 35.5 µM (inactive); in experiment [7] it was > 100 µM (inactive). For the same compound, the GI50 is 63.4 µM (inactive) in [8]; 21.9 µM (inactive) in experiment [16]; > 100 µM (inactive) in [9]; > 100 µM (inactive) in [10]; 56.5 µM (inactive) in experiment [11]; 42.3 µM (inactive) in experiment [12]. For the same compound, the GI50 in [17] was 51.2 µM (inactive); in experiment [13], 68.5 µM (inactive); in experiment [14], 90.4 µM (inactive); in [15] it was 27.5 µM (inactive).
Regarding `C#CCN(C(=O)C(F)(F)F)c1ccc(C(=O)c2ccc(N(CC#C)C(=O)C(F)(F)F)cc2)cc1`, the GI50 in experiment [1] is 34.1 µM (inactive); in experiment [2], 32.7 µM (inactive); in experiment [3], 37.6 µM (inactive); in experiment [4] it was 24.6 µM; in experiment [5], 48.2 µM (inactive); in experiment [6], 34.8 µM (inactive). Moreover, the GI50 in [7] is 19.5 µM (inactive); in experiment [8], 33.1 µM (inactive); in experiment [9] it was 23.2 µM (inactive); in [10], 28.7 µM (inactive); in experiment [11], 36.1 µM (inactive); in [12], > 100 µM (inactive). The GI50 in experiment [13] is 46.5 µM (inactive); in [14], 48.6 µM (inactive); in experiment [15] it was 59.7 µM (inactive).
`O=[N+]([O-])c1ccc(/C=N/C2CCCCC2)cc1`: the GI50 in experiment [1] is > 100 µM (inactive); in [2] it was > 100 µM (inactive); in [3], > 100 µM (inactive); in [4], above 100 µM; in experiment [5], > 100 µM (inactive); in experiment [6], > 100 µM (inactive). Also, the GI50 in [7], in [8], in experiment [16], in [9], in experiment [10] and in experiment [11] was > 100 µM (inactive) each time. Also, the GI50 in experiment [12], in experiment [17], in experiment [13], in [14] and in experiment [15] was > 100 µM (inactive) in each case.
Regarding `O=S1(=O)OCCOS(=O)(=O)C1(Cl)Cl`, the GI50 in [1] was 61.9 µM (inactive); in experiment [3], > 100 µM (inactive); in experiment [5], 64.9 µM (inactive); in experiment [6], 97.5 µM (inactive); in experiment [7], > 100 µM (inactive); in experiment [8], > 100 µM (inactive). The GI50 in experiment [16] is 41.1 µM (inactive); in [9], > 100 µM (inactive); in experiment [10], > 100 µM (inactive); in experiment [11], > 100 µM (inactive); in experiment [12] it was 74.8 µM (inactive); in [17], > 100 µM (inactive). The GI50 was 91.4 µM (inactive) in experiment [13], > 100 µM (inactive) in [14] and 99.8 µM (inactive) in [15].
On to `COc1ccc(-c2nc(N)nc(-c3cc(C)ccc3O)c2Cl)cc1`, for which the GI50 was 45.4 µM (inactive) in experiment [1]; 47.2 µM (inactive) in experiment [2]; 39.9 µM (inactive) in experiment [3]; above 100 µM in experiment [4]; 41.7 µM (inactive) in [5]; 55.1 µM (inactive) in experiment [6]. The GI50 in experiment [7] was > 100 µM (inactive); in experiment [8] it was > 100 µM (inactive); in [16], > 100 µM (inactive); in [9], 50.6 µM (inactive); in experiment [10], 11.3 µM (inactive); in experiment [11], 43.2 µM (inactive). The GI50 was 29.9 µM (inactive) in [17], 32.9 µM (inactive) in experiment [13], 32.7 µM (inactive) in experiment [14] and 26.7 µM (inactive) in [15].
As for `CCOc1ccc(NC(=O)CC2SC(Nc3ccc(C)cc3C)=NC2=O)cc1` (stereo not given), the GI50 was > 100 µM (inactive) in experiment [1]; > 100 µM (inactive) in [2]; > 100 µM (inactive) in experiment [3]; above 100 µM in experiment [4]; > 100 µM (inactive) in experiment [6]; > 100 µM (inactive) in [7]. Further, the GI50 in experiment [8] is > 100 µM (inactive); in experiment [16] it was 84.3 µM (inactive); in experiment [9], > 100 µM (inactive); in [10], 90.8 µM (inactive); in experiment [11] it was 89.1 µM (inactive); in experiment [12], > 100 µM (inactive). Besides, the GI50 in experiment [13] was 54.3 µM (inactive); in [14] it was > 100 µM (inactive); in experiment [15], > 100 µM (inactive).
As for `COC(=O)C(C(=O)C(=O)Nc1nnc(S)[nH]1)c1csc(N)n1` (stereo not given), the GI50 in [1] is > 100 µM (inactive); in experiment [2] it was > 100 µM (inactive); in experiment [3], > 100 µM (inactive); in experiment [4] it was above 100 µM; in experiment [5], > 100 µM (inactive); in experiment [7] it was > 100 µM (inactive). Moreover, the GI50 in experiment [8], in experiment [16], in experiment [9], in [10], in experiment [11] and in experiment [12] was > 100 µM (inactive) each time. For the same compound, the GI50 in experiment [17], in experiment [13], in experiment [14] and in [15] was > 100 µM (inactive) in each case.
In the case of `COc1cc(/C=N\O[Si](C)(C)C(C)(C)C)ccc1O[Si](C)(C)C(C)(C)C`, the GI50 was 32.4 µM (inactive) in experiment [1]; 51.4 µM (inactive) in experiment [2]; 89.9 µM (inactive) in [3]; 27.4 µM in [4]; > 100 µM (inactive) in experiment [5]; 25.4 µM (inactive) in [6]. The GI50 in experiment [7] was 47.3 µM (inactive); in [8], > 100 µM (inactive); in experiment [10] it was > 100 µM (inactive); in [11] it was 64.1 µM (inactive); in experiment [12], > 100 µM (inactive); in [17] it was > 100 µM (inactive). The GI50 in experiment [13] is 76.9 µM (inactive); in [14], > 100 µM (inactive); in experiment [15], > 100 µM (inactive).
As to `COc1cc(C(C)c2cc3c(cc2OCCCCCOc2cc4c(cc2C(C)c2cc(OC)c(OC)c(OC)c2)OCO4)OCO3)cc(OC)c1OC` (stereo not given), the GI50 in experiment [1] was > 100 µM (inactive); in experiment [2], > 100 µM (inactive); in experiment [3], > 100 µM (inactive); in experiment [4], above 100 µM; in [5], > 100 µM (inactive); in experiment [7], > 100 µM (inactive). For the same compound, the GI50 in experiment [8], in experiment [16], in experiment [9], in [10], in [11] and in [12] was > 100 µM (inactive) in each case. In addition, the GI50 in experiment [13] and in experiment [15] was > 100 µM (inactive) each time.
With `CCOC(=O)CC1(C(=O)OCC)c2[nH]c3ccccc3c2CCN1Cc1ccccc1` (stereo not given), the GI50 was 16.9 µM (inactive) in experiment [1]; 21.2 µM (inactive) in [2]; 24.4 µM (inactive) in experiment [3]; 29.2 µM in experiment [4]; 18.1 µM (inactive) in experiment [5]; 17.5 µM (inactive) in [6]. The GI50 in experiment [7] is 14.4 µM (inactive); in [8], 18.3 µM (inactive); in experiment [16] it was 19.1 µM (inactive); in experiment [9] it was 15.9 µM (inactive); in [10], 19.2 µM (inactive); in experiment [11], 23.7 µM (inactive). Further, the GI50 in experiment [12] is 20 µM (inactive); in experiment [17] it was 28.5 µM (inactive); in [13] it was 38.4 µM (inactive); in experiment [14], 31.2 µM (inactive); in [15], 18.4 µM (inactive).
